Measured values published in PMC4958397, “Synthesis, antibacterial and antiproliferative potential of some new 1-pyridinecarbonyl-4-substituted thiosemicarbazide derivatives” (Medicinal Chemistry Research, 2016).
Where two headings read alike, the source gives them in different places.

Test system: MCF-7 (human breast adenocarcinoma)
Assay: Cell proliferation MTT assay
Format: cell-based
Details: MCF7, 96 h, read-out: IC50, antiproliferative activity, MCF-7
Experimental: Normal human skin fibroblasts (BJ), human hepatocellular carcinoma (HepG2) and human breast adenocarcinoma (MCF-7) were obtained from American Type Culture Collection (ATCC, England, UK). The cells were cultured in Eagle’s minimum essential medium (EMEM, ATCC) supplemented with 10 % fetal bovine serum (FBS, PAA Laboratories), 100 U/mL penicillin and 100 μg/mL streptomycin (Sigma-Aldrich). In the case of the MCF-7 cell line, the culture medium was additionally supplemented with 0.01 μg/mL of human recombinant insulin (Sigma-Aldrich). The cells were grown in 75-cm^2 flasks and maintained at 37 °C in a humidified atmosphere of 5 % CO2 and 95 % air.
In order to evaluate cell proliferation, the cells were seeded in flat-bottom 96-well plates in 100 μL of a complete growth medium at a concentration of 2 × 10^3 cells/well (BJ), 1.5 × 10^4 cells/well (HepG2) and 2.5 × 10^4 cells/well (MCF-7) and incubated for 24 h at 37 °C in a humidified atmosphere of 5 % CO2. Before drug exposure, the synthesized compounds (1–10) were dissolved in DMSO and then diluted in a complete culture medium supplemented with 10 % FBS. Subsequently, the growth medium was gently removed and the cells were exposed to 100 μL of serial dilutions of the investigated compounds at concentrations ranging from 0.05 to 200 μg/mL. Untreated cells were used as negative controls, and different concentrations of DMSO were used as the solvent control. After 96-h incubation at 37 °C in a humidified atmosphere of 5 % CO2, cell proliferation was assessed using the MTT test as described previously (Cytotoxicity assay). The MTT assay was repeated in three independent experiments in quadruplicates. The half-maximal inhibitory concentration (IC50) was defined as the compound concentration (μg/mL) required to inhibit cell proliferation to 50 %.
The results of the in vitro cell culture experiments were presented as mean values ± standard deviation (SD) or as mean values ± standard error of the mean (SEM). The data were analyzed using one-way ANOVA test followed by Dunnett’s test. Differences were considered as significant with p < 0.01 (GraphPad Prism 5, Version 5.04 Software). The values of CC50 and IC50 were calculated via 4-parameter nonlinear regression analyses using GraphPad Prism 5, version 5.04.

| IC50 (mean ± SD) | IC50 (same value in µM) | Compound |
| --- | --- | --- |
| 8.63 mg/L | 25.3 µM | O=C(NNC(=S)Nc1ccc(Cl)cc1Cl)c1ccccn1 [Compound 4, 4-(2,4-Dichlorophenyl)-1-(pyridin-2-yl)carbonylthiosemicarbazide] |
| 14.8 ± 1.03 mg/L |  | O=C(NNC(=S)Nc1ccccc1Cl)c1ccccn1 [Compound 2, 4-(2-Chlorophenyl)-1-(pyridin-2-yl)carbonylthiosemicarbazide] |
